Three compounds from PubChem BioAssay AID1259407 (Chemical Carcinogenesis Research Information System (CCRIS), 2018) can be followed below.

The data set relates to CCRIS mutagenicity, Ames/micronucleus/aberration tests. Kind of data set: CCRIS mutagenicity studies.
Where [1] appears, read: Test System: AMES SALMONELLA TYPHIMURIUM, Strain/Indicator: TA98, Metabolic Activation: NONE, Method: PREINCUBATION
Setting [2] is: Test System: AMES SALMONELLA TYPHIMURIUM, Strain/Indicator: TA100, Metabolic Activation: NONE, Method: PREINCUBATION
Setting [3] is: Test System: AMES SALMONELLA TYPHIMURIUM, Strain/Indicator: TA1535, Metabolic Activation: NONE, Method: PREINCUBATION
[4] abbreviates: Test System: AMES SALMONELLA TYPHIMURIUM, Strain/Indicator: TA1537, Metabolic Activation: NONE, Method: PREINCUBATION
[5] abbreviates: Test System: AMES SALMONELLA TYPHIMURIUM, Strain/Indicator: TA1538, Metabolic Activation: NONE, Method: PREINCUBATION
Setting [6] is: Test System: E. COLI, Strain/Indicator: WP2 UVRA, Metabolic Activation: NONE, Method: PREINCUBATION

SMILES strings stand for the structures. The source made the active and inactive calls. No rule for the calls is given here.

`N`: the mutagenic call (End Point: IN VIVO MICRONUCLEUS, Test System: BONE MARROW POLYCHROMATIC ERYTHROCYTES, Species: MOUSE, Strain/Sex: DDY/MALE, Route: IP) is “inactive; negative”; the mutagenic call (Test System: AMES SALMONELLA TYPHIMURIUM, Strain/Indicator: TA98, Metabolic Activation: NONE) is “inactive; negative”; the mutagenic call under setting [1] was “inactive; negative”; the mutagenic call (Test System: AMES SALMONELLA TYPHIMURIUM, Strain/Indicator: TA98, Metabolic Activation: RAT, LIVER, S-9, KC 500) was “inactive; negative”; the mutagenic call (Test System: AMES SALMONELLA TYPHIMURIUM, Strain/Indicator: TA98, Metabolic Activation: RAT, LIVER, S-9, KC 500, Method: PREINCUBATION) is “inactive; negative”; the mutagenic call (Test System: AMES SALMONELLA TYPHIMURIUM, Strain/Indicator: TA100, Metabolic Activation: NONE) was “inactive; negative”. In addition, the mutagenic call was “inactive; negative” under setting [2]; “inactive; negative” (Test System: AMES SALMONELLA TYPHIMURIUM, Strain/Indicator: TA100, Metabolic Activation: RAT, LIVER, S-9, KC 500); “inactive; negative” (Test System: AMES SALMONELLA TYPHIMURIUM, Strain/Indicator: TA100, Metabolic Activation: RAT, LIVER, S-9, KC 500, Method: PREINCUBATION); “inactive; negative” (Test System: AMES SALMONELLA TYPHIMURIUM, Strain/Indicator: TA1535, Metabolic Activation: NONE); “inactive; negative” under setting [3]; “inactive; negative” (Test System: AMES SALMONELLA TYPHIMURIUM, Strain/Indicator: TA1535, Metabolic Activation: RAT, LIVER, S-9, KC 500). Further, the mutagenic call is, setting by setting: (Test System: AMES SALMONELLA TYPHIMURIUM, Strain/Indicator: TA1535, Metabolic Activation: RAT, LIVER, S-9, KC 500, Method: PREINCUBATION) “inactive; negative”; (Test System: AMES SALMONELLA TYPHIMURIUM, Strain/Indicator: TA1537, Metabolic Activation: NONE) “inactive; negative”; under setting [4], “inactive; negative”; (Test System: AMES SALMONELLA TYPHIMURIUM, Strain/Indicator: TA1537, Metabolic Activation: RAT, LIVER, S-9, KC 500) “inactive; negative”; (Test System: AMES SALMONELLA TYPHIMURIUM, Strain/Indicator: TA1537, Metabolic Activation: RAT, LIVER, S-9, KC 500, Method: PREINCUBATION) “inactive; negative”; (Test System: AMES SALMONELLA TYPHIMURIUM, Strain/Indicator: TA1538, Metabolic Activation: NONE) “inactive; negative”. Moreover, the mutagenic call under setting [5] was “inactive; negative”; the mutagenic call (Test System: AMES SALMONELLA TYPHIMURIUM, Strain/Indicator: TA1538, Metabolic Activation: RAT, LIVER, S-9, KC 500) is “inactive; negative”; the mutagenic call (Test System: AMES SALMONELLA TYPHIMURIUM, Strain/Indicator: TA1538, Metabolic Activation: RAT, LIVER, S-9, KC 500, Method: PREINCUBATION) is “inactive; negative”; the mutagenic call (Test System: E. COLI, Strain/Indicator: WP2 UVRA, Metabolic Activation: NONE) was “inactive; negative”; the mutagenic call under setting [6] is “inactive; negative”; the mutagenic call (Test System: E. COLI, Strain/Indicator: WP2 UVRA, Metabolic Activation: RAT, LIVER, S-9, KC 500) is “inactive; negative”. In addition, the mutagenic call (Test System: E. COLI, Strain/Indicator: WP2 UVRA, Metabolic Activation: RAT, LIVER, S-9, KC 500, Method: PREINCUBATION) was “inactive; negative”.
For `CC[C@H](C)[C@@H]1NC(=O)[C@H](CCCNC(=N)N)NC(=O)[C@H](CC(=O)O)NC(=O)[C@H](CCSC)NC(=O)[C@H](CCCNC(=N)N)NC(=O)CNC(=O)CNC(=O)[C@H](Cc2ccccc2)NC(=O)[C@@H](NC(=O)[C@H](CO)NC(=O)[C@H](CO)NC(=O)[C@H](CCCNC(=N)N)NC(=O)[C@H](CCCNC(=N)N)NC(=O)[C@H](CC(C)C)NC(=O)[C@@H](N)CO)CSSC[C@@H](C(=O)N[C@@H](CC(N)=O)C(=O)N[C@@H](CO)C(=O)N[C@@H](Cc2ccccc2)C(=O)N[C@@H](CCCNC(=N)N)C(=O)N[C@@H](Cc2ccc(O)cc2)C(=O)O)NC(=O)CNC(=O)[C@H](CC(C)C)NC(=O)CNC(=O)[C@H](CO)NC(=O)[C@H](CCC(N)=O)NC(=O)[C@H](C)NC(=O)CNC1=O`, the mutagenic call is, setting by setting: under setting [1], “inactive; negative”; (Test System: AMES SALMONELLA TYPHIMURIUM, Strain/Indicator: TA98, Metabolic Activation: S-9, Method: PREINCUBATION) “inactive; negative”; under setting [2], “inactive; negative”; (Test System: AMES SALMONELLA TYPHIMURIUM, Strain/Indicator: TA100, Metabolic Activation: S-9, Method: PREINCUBATION) “inactive; negative”; under setting [3], “inactive; negative”; (Test System: AMES SALMONELLA TYPHIMURIUM, Strain/Indicator: TA1535, Metabolic Activation: S-9, Method: PREINCUBATION) “inactive; negative”. Also, the mutagenic call is “inactive; negative” under setting [4]; “inactive; negative” (Test System: AMES SALMONELLA TYPHIMURIUM, Strain/Indicator: TA1537, Metabolic Activation: S-9, Method: PREINCUBATION); “inactive; negative” under setting [6]; “inactive; negative” (Test System: E. COLI, Strain/Indicator: WP2 UVRA, Metabolic Activation: S-9, Method: PREINCUBATION).
Consider `N#CN=C(N)N`, for which the mutagenic call is, setting by setting: (Test System: AMES SALMONELLA TYPHIMURIUM, Strain/Indicator: TA98, Metabolic Activation: MAIZE SEEDLING, S-14, Method: PREINCUBATION) “active; positive”; (Test System: AMES SALMONELLA TYPHIMURIUM, Strain/Indicator: TA98, Metabolic Activation: MOUSE, LIVER, S-9, Method: PREINCUBATION) “inactive; negative”; under setting [1], “inactive; negative”; (Test System: AMES SALMONELLA TYPHIMURIUM, Strain/Indicator: TA98, Metabolic Activation: RAT LIVER S-9, PHENOBARBITAL AND BETA-NAPHTHOFLAVONE, Method: PREINCUBATION) “inactive; negative”; (Test System: AMES SALMONELLA TYPHIMURIUM, Strain/Indicator: TA100, Metabolic Activation: MAIZE SEEDLING, S-14, Method: PREINCUBATION) “inactive; negative”; (Test System: AMES SALMONELLA TYPHIMURIUM, Strain/Indicator: TA100, Metabolic Activation: MOUSE, LIVER, S-9, Method: PREINCUBATION) “inactive; negative”. Further, the mutagenic call reads like this: under setting [2], “inactive; negative”; (Test System: AMES SALMONELLA TYPHIMURIUM, Strain/Indicator: TA100, Metabolic Activation: RAT LIVER S-9, PHENOBARBITAL AND BETA-NAPHTHOFLAVONE, Method: PREINCUBATION) “inactive; negative”; (Test System: AMES SALMONELLA TYPHIMURIUM, Strain/Indicator: TA102, Metabolic Activation: NONE, Method: PREINCUBATION) “inactive; negative”; (Test System: AMES SALMONELLA TYPHIMURIUM, Strain/Indicator: TA102, Metabolic Activation: RAT LIVER S-9, PHENOBARBITAL AND BETA-NAPHTHOFLAVONE, Method: PREINCUBATION) “inactive; negative”; (Test System: AMES SALMONELLA TYPHIMURIUM, Strain/Indicator: TA104, Metabolic Activation: NONE, Method: PREINCUBATION) “inactive; negative”; (Test System: AMES SALMONELLA TYPHIMURIUM, Strain/Indicator: TA104, Metabolic Activation: RAT LIVER S-9, PHENOBARBITAL AND BETA-NAPHTHOFLAVONE, Method: PREINCUBATION) “inactive; negative”. The mutagenic call reads like this: under setting [3], “inactive; negative”; (Test System: AMES SALMONELLA TYPHIMURIUM, Strain/Indicator: TA1535, Metabolic Activation: RAT LIVER S-9, PHENOBARBITAL AND BETA-NAPHTHOFLAVONE, Method: PREINCUBATION) “inactive; negative”; under setting [4], “inactive; negative”; (Test System: AMES SALMONELLA TYPHIMURIUM, Strain/Indicator: TA1537, Metabolic Activation: RAT LIVER S-9, PHENOBARBITAL AND BETA-NAPHTHOFLAVONE, Method: PREINCUBATION) “inactive; negative”; under setting [5], “inactive; negative”; (Test System: E.COLI, Strain/Indicator: WP2UVRA/PKM101, Metabolic Activation: NONE, Method: PREINCUBATION) “inactive; negative”. Further, the mutagenic call runs as follows: (Test System: E.COLI, Strain/Indicator: WP2UVRA/PKM101, Metabolic Activation: RAT LIVER S-9, PHENOBARBITAL AND BETA-NAPHTHOFLAVONE, Method: PREINCUBATION) “inactive; negative”; (Test System: E.COLI, Strain/Indicator: WP2UVRA, Metabolic Activation: NONE, Method: PREINCUBATION) “inactive; negative”; (Test System: E.COLI, Strain/Indicator: WP2UVRA, Metabolic Activation: RAT LIVER S-9, PHENOBARBITAL AND BETA-NAPHTHOFLAVONE, Method: PREINCUBATION) “inactive; negative”.
